From patent publication US20210315898A1, “COMBINATION THERAPY FOR TREATING CANCER” (AstraZeneca AB, priority 2018, published 2021)

Key:
HL-60 AML cells = assay: HL-60 subcutaneous xenograft model of AML, tumor volume and survival; format: in vivo, SCID mice; details: HL-60 xenograft, FIG. 2; AZD2811 nanoparticles 25 mg/kg iv once weekly; 5-azacytidine 1 mg/kg ip twice-daily for three days, 4 rest days; 3 weekly cycles, start day 7; monotherapy compared with KG1a model
Experimental: (§1) HL-60: 1×10^7 HL-60 AML cells in 50% matrigel were implanted subcutaneously on the left flank of adult female SCID mice. Mice were randomised into groups of 12 and dosing was started for all drugs and all combinations at day 7 respectively following implant. AZD2811 nanoparticles were dosed at once weekly with a 20-30 s intravenous infusion at either 25 mg/kg (100 mg/kg was the maximum tolerated dose in combination 5-azacytidine at 1 mg/kg; 5-azacytidine was dosed twice-daily for three days by the intraperitoneal route, followed by 4 rest days of no dosing). All drugs were given for 3 weekly cycles. Tumors were measured twice weekly by single operators, and all dosing was performed by randomised cage to minimise systematic bias. Mice reached study survival endpoint when tumors reached 1.5 cm^3

KG1a AML cells = assay: KG1a subcutaneous xenograft model of AML, tumor volume; format: in vivo, SCID mice; details: FIG. 1, AZD2811 nanoparticles 100 mg/kg iv once weekly, 5-azacytidine 1 mg/kg ip twice-daily for three days, 4 rest days, 3 weekly cycles, start day 1
Experimental: as §1, with “KG1a: 2×10^7 KG1a” for “HL-60: 1×10^7 HL-60”, “1 (D1)” for “7 respectively”, “100” for “either 25”, “surival” for “survival”, “cm^3.” for “cm^3”

## Nc1ncn([C@@H]2O[C@H](CO)[C@@H](O)[C@H]2O)c(=O)n1 [5-azacytidine, 4-amino-1-(β-D-ribofuranosyl)-1,3,5-triazin-2(1H)-one]
HL-60 AML cells
  efficacy (reduction in tumor volume over time): greater efficacy
KG1a AML cells
  efficacy (reduction in tumor volume over time): modestly efficacious
